Tests used:
Assay in all cases: relative viability (nuclei count vs DMSO), 5 days (fraction); higher = more cells survive
[1] = compound: C1=CC2=C(C=C(C(=C2N=C1)O)N=NC3=CC4=C(C=C3)C=C(C=C4)S(=O)(=O)O)S(=O)(=O)O + COc1cc2c(Oc3ccc(NC(=O)C4(C(=O)Nc5ccc(F)cc5)CC4)cc3F)ccnc2cc1OCCCN1CCOCC1 [Foretinib] (partner 0.25 µM)
Outline: (§1)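 Nuclei were stained with Hoechst during a one-step fixation (final 0.05% Triton X-100, 1% formaldehyde, 1 ug/ml Hoechst) carried out 5 days after dosing, then counted on 4× images. The cells, lung cancer lines in 1536-well plates, had been dosed by pin tool the day after seeding with one drug alone or a fixed anchor-drug dose plus five library-drug doses (not always all listed) in √10 steps. Relative viability is the nuclei count in treated wells divided by that in vehicle wells, and each value is the median of duplicate plates.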

AT-7519 + Navitoclax = compound: O=C(NC1CCNCC1)c1n[nH]cc1NC(=O)c1c(Cl)cccc1Cl [AT-7519] + CC1(C)CCC(c2ccc(Cl)cc2)=C(CN2CCN(c3ccc(C(=O)NS(=O)(=O)c4ccc(N[C@H](CCN5CCOCC5)CSc5ccccc5)c(S(=O)(=O)C(F)(F)F)c4)cc3)CC2)C1 [Navitoclax] (partner 0.5 µM)
Outline: as §1

[2] = compound: C1=CC2=C(C=C(C(=C2N=C1)O)N=NC3=CC4=C(C=C3)C=C(C=C4)S(=O)(=O)O)S(=O)(=O)O + Nc1ncn([C@H]2C[C@H](O)[C@@H](CO)O2)c(=O)n1 [Decitabine] (partner 2 µM)
Outline: as §1

AT-7519 + Decitabine = compound: O=C(NC1CCNCC1)c1n[nH]cc1NC(=O)c1c(Cl)cccc1Cl [AT-7519] + Nc1ncn([C@H]2C[C@H](O)[C@@H](CO)O2)c(=O)n1 [Decitabine] (partner 2 µM)
Outline: as §1

Row | Cell Line | relative viability ([1]; first compound 0.08 µM) | relative viability ([1]; first compound 0.253 µM) | relative viability ([1]; first compound 0.8 µM) | relative viability ([1]; first compound 2.53 µM) | relative viability ([1]; first compound 8 µM) | relative viability (AT-7519 + Navitoclax; first compound 0.01 µM) | relative viability (AT-7519 + Navitoclax; first compound 0.03162 µM) | relative viability (AT-7519 + Navitoclax; first compound 0.3162 µM) | relative viability (AT-7519 + Navitoclax; first compound 1 µM) | relative viability ([2]; first compound 0.08 µM) | relative viability ([2]; first compound 0.253 µM) | relative viability ([2]; first compound 0.8 µM) | relative viability ([2]; first compound 2.53 µM) | relative viability ([2]; first compound 8 µM) | relative viability (AT-7519 + Decitabine; first compound 0.01 µM) | relative viability (AT-7519 + Decitabine; first compound 0.03162 µM) | relative viability (AT-7519 + Decitabine; first compound 0.3162 µM) | relative viability (AT-7519 + Decitabine; first compound 1 µM)
1 | NCI-H2405 | 1.1 | 1.04 | 1.06 | 1.03 | 1.04 | 1.02 | 0.829 | 0.853 | 0.528 | 0.744 | 0.685 | 0.7 | 0.828 | 0.742 | 0.741 | 0.744 | 0.711 | 0.486
2 | NCI-H3122 | 0.967 | 0.977 | 0.925 | 0.982 | 0.973 | 1.02 | 1.07 | 1.06 | 0.558 | 0.415 | 0.471 | 0.472 | 0.448 | 0.439 | 0.508 | 0.484 | 0.511 | 0.193
3 | PC-3 [JPC-3] | 1.1 | 1.03 | 1.08 | 0.99 | 0.951 | 0.754 | 0.714 | 0.867 | 0.934 | 0.843 | 0.793 | 0.833 | 0.883 | 0.814 | 0.802 | 0.815 | 0.726 | 0.756
4 | PC-14 | 1.16 | 0.905 | 0.815 | 0.971 | 1.11 | 0.994 | 1.03 | 0.952 | 0.719 | 0.184 | 0.229 | 0.217 | 0.266 | 0.217 | 0.264 | 0.205 | 0.189 | 0.0859
5 | RERF-LC-KJ | 1.02 | 0.835 | 0.837 | 0.999 | 0.844 | 1.04 | 0.981 | 0.848 | 0.408 | 0.654 | 0.684 | 0.637 | 0.761 | 0.631 | 0.738 | 0.701 | 0.452 | 0.229
6 | SK-LU-1 | 1.01 | 0.768 | 0.787 | 0.787 | 0.889 | 0.516 | 0.848 | 0.882 | 0.189 | 0.795 | 0.679 | 0.664 | 0.616 | 0.655 | 0.602 | 0.653 | 0.569 | 0.501
7 | SK-MES-1 | 0.86 | 0.856 | 0.874 | 0.761 | 1.15 | 1.18 | 1.08 | 1.25 | 1.15 | 0.39 | 0.362 | 0.336 | 0.405 | 0.367 | 0.349 | 0.348 | 0.361 | 0.35
8 | SW 1573 | 1.1 | 1.02 | 1.02 | 1.01 | 0.444 | 0.921 | 0.873 | 0.704 | 0.224 | 0.55 | 0.494 | 0.419 | 0.494 | 0.275 | 0.471 | 0.424 | 0.34 | 0.137
9 | UMC-11 | 1.13 | 1.04 | 0.938 | 1.05 | 1.01 | 0.291 | 0.306 | 0.222 | 0.134 | 0.506 | 0.644 | 0.734 | 0.679 | 0.638 | 0.675 | 0.551 | 0.514 | 0.306
